Values of other authors as cited in patent US6340756B1, “Process for preparing a 2-(2-amino-1, 6-dihydro-6-oxo-purin-9-yl)methoxy-1,3-propanediol derivative” (Syntex (U.S.A.) Inc., priority 1996, dated 2002).

Tests used:
[1] = rats, urinary recovery of acyclovir, Beauchamp et al. 1992
[2] = EP 0 308 065 A2
[3] = EP 0 694 547 A
[4] = EP 0 694 547 A; remark: listed apart in the source

| SMILES | amount of the parent drug (acyclovir) in the urine compared with acyclovir itself [1] | further results |
| --- | --- | --- |
| Nc1nc2c(ncn2COCCOC(=O)C2CCCN2)c(=O)[nH]1 [L-prolyl] | greater amounts of the parent drug in the urine than acyclovir itself | – |
| CC(C)[C@H](N)C(=O)OCCOCn1cnc2c(=O)nc(N)[nH]c21 [valine ester of acyclovir] | – | absorption from the gut after oral administration, compared with other esters and acyclovir [2]: large increase in absorption |
| NCC(=O)OCCOCn1cnc2c(=O)[nH]c(N)nc21 [glycyl] | greater amounts of the parent drug in the urine than acyclovir itself | – |
| CCC(C)C(N)C(=O)OCCOCn1cnc2c(=O)[nH]c(N)nc21 (racemic) [DL-isoleucyl] | greater amounts of the parent drug in the urine than acyclovir itself | – |
| C[C@H](N)C(=O)OCCOCn1cnc2c(=O)[nH]c(N)nc21 [L-alanyl] | greater amounts of the parent drug in the urine than acyclovir itself | – |
| CC(C)[C@H](N)C(=O)OCCOCn1cnc2c(=O)nc(N)[nH]c21 [L-valyl] | greater amounts of the parent drug in the urine than acyclovir itself | rank as prodrug among the esters investigated ([1]; eighteen amino acid esters): best prodrug |
| CC(C)[C@@H](N)C(=O)OCC(CO)OCn1cnc2c(O)nc(N)nc21 (stereo partly drawn) [2-(2-amino-1,6-dihydro-6-oxo-purin-9-yl)methoxy-3-hydroxy-1-propyl-L-valinate] | – | toxicity [3]: low toxicity; oral absorption [4]: improved oral absorption |
| CC(C)C(N)C(=O)OCCOCn1cnc2c(=O)[nH]c(N)nc21 (racemic) [D,L-valyl] | greater amounts of the parent drug in the urine than acyclovir itself | – |
| CC[C@H](N)C(=O)OCCOCn1cnc2c(=O)[nH]c(N)nc21 | greater amounts of the parent drug in the urine than acyclovir itself | – |
| CC(N)C(=O)OCCOCn1cnc2c(=O)[nH]c(N)nc21 (racemic) [D,L-alanyl] | greater amounts of the parent drug in the urine than acyclovir itself | – |
| CC[C@H](C)[C@H](N)C(=O)OCCOCn1cnc2c(=O)[nH]c(N)nc21 [L-isoleucyl] | greater amounts of the parent drug in the urine than acyclovir itself | – |
| CSCC[C@H](N)C(=O)OCCOCn1cnc2c(=O)[nH]c(N)nc21 [L-methionyl] | greater amounts of the parent drug in the urine than acyclovir itself | – |
